Measured values: patent US6841560B2, “Substituted isoquinoline derivatives and their use as anticonvulsants” (SmithKline Beecham p.l.c., priority 1997, dated 2005)

Test system: maximal (tonic hindlimb extension) electroshock seizures in male rats
Assay: Maximal electroshock seizure (MEST) threshold test, rat model
Assay type: in vivo
Conditions: 2 mg/kg p.o. at 2 h, suspended in 1% methyl cellulose
Description: (§1) The maximal electroshock seizure (MEST) threshold test in rodents is particularly sensitive for detecting potential anticonvulsant properties^1. In this model, anticonvulsant agents elevate the threshold to electrically-induced seizures whilst proconvulsants lower the seizure threshold.
The threshold for maximal (tonic hindlimb extension) electroshock seizures in male rats (Sprague Dawley, 80-150 g, 6 weeks old) was determined by a Hugo Sachs Electronik stimulator which delivered a constant current (0.3 sec duration, from 1-300 mA in steps of 5-20 mA). The procedure is similar to that outlined above for mouse and full details are as published by Upton et al,.^4
The percentage increase or decrease in CC50 for each group compared to the control is calculated.
Drugs are suspended in 1% methyl cellulose.

Row | Compound | increase in CC50 (seizure threshold) compared to control [%]
1 | CC(C)Oc1ccc(C(=O)Nc2ccc3c(c2)CN(C)CC3)cc1Cl [Example 48, N-(2-Methyl-1,2,3,4-tetrahydroisoquinolin-7-yl)-3-chloro-4-iso-propoxybenzamide] | 389
2 | CCOc1ccc(C(=O)Nc2ccc3c(c2)CN(C)CC3)cc1Br [Example 49, N-(2-Methyl-1,2,3,4-tetrahydroisoquinolin-7-yl)-3-bromo-4-ethoxybenzamide] | 325
3 | COc1ccc(C(=O)Nc2ccc3c(c2)CN(C)CC3)cc1C(F)(F)F [Example 51, N-(2-Methyl-1,2,3,4-tetrahydroisoquinolin-7-yl)-4-methoxy-3-trifluoromethylbenzamide] | 545
4 | CC(C)c1ccc(C(=O)Nc2ccc3c(c2)CN(C)CC3)cc1C#N.Cl [Example 67, N-(2-Methyl-1,2,3,4-tetrahydroisoquinolin-7-yl)-3-cyano-4-iso-propylbenzamide, hydrochloride] | 303

Test system: electrically-induced seizures in mice
Assay: Maximal electroshock seizure (MEST) threshold test, mouse model
Assay type: in vivo
Conditions: 10 mg/kg oral, suspension in methyl cellulose, one hour post dosing
Description: as §1
Mice (naive male, Charles River, U.K. CD1 strain, 25-30 g) are randomly assigned to groups of 10-20 and dosed orally or intraperitoneally at a dose volume of 10 ml/kg with various doses of compound (0.3-300 mg/kg) or vehicle. Mice are then subjected at 30 or 60 min post dose to a single electroshock (0.1 sec, 50 Hz, sine wave form) administered via corneal electrodes. The mean current and standard error required to induce a tonic seizure in 50% (CC50) of the mice in a particular treatment group is determined by the ‘up and down’ method of Dixon and Mood (1948)^2. Statistical comparisons between vehicle- and drug-treated groups are made using the method of Litchfield and Wilcoxon (1949)^3.
In control animals the CC50 is usually 14-18 mA. […] If a tonic convulsion does occur, then the current is decreased, and so on until all the animals in the group have been tested.
Studies are carried out using a Hugo Sachs Electronik Constant Current Shock Generator with totally variable control of shock level from 0 to 300 mA and steps of 2 mA are usually used.

Row | Compound | increase in seizure threshold [%]
5 | CN1CCc2ccc(NC(=O)c3cccc(Cl)c3)cc2C1 [Example 4, N-(2-Methyl-1,2,3,4-tetrahydroisoquinolin-7-yl)-3-chlorobenzamide] | 24
6 | CN1CCc2ccc(NC(=O)c3ccc(C(C)(C)C)cc3)cc2C1 [Example 5, N-(2-Methyl-1,2,3,4-tetrahydroisoquinolin-7-yl)-4-t-butylbenzamide] | 36
7 | CC(C)Oc1ccc(C(=O)Nc2ccc3c(c2)CN(C)CC3)cc1 [Example 6, N-(2-Methyl-1,2,3,4-tetrahydroisoquinolin-7-yl)-4-iso-propoxybenzamide] | 90
8 | CN1CCc2ccc(NC(=O)c3ccc(Oc4ccccc4)cc3)cc2C1 [Example 7, N-(2-Methyl-1,2,3,4-tetrahydroisoquinolin-7-yl)-4-phenoxybenzamide] | 23

Test system: not given
Assay: not given
Conditions: not given

Row | melting point [°C] | Compound
9 | 197 to 201 | CN1CCc2ccc(NC(=O)c3cccc(C(=O)C(C)(C)C)c3)cc2C1.Cl
10 | 153 to 155 | O=C(Nc1ccc2c(c1)CNCC2)c1ccc(Cl)s1.O=C(O)C(F)(F)F [Example 1, N-(1,2,3,4-Tetrahydroisoquinolin-7-yl)-5-chlorothiophene-2-carboxamide, monotrifluoroacetate]
